Drawing on patent US11623924B2, “Modulators of alpha-1 antitrypsin” (Vertex Pharmaceuticals Incorporated, priority 2018, dated 2023), this text covers EC50 for 32 compounds.

Molecules are shown by their SMILES.

In this assay the target is T1, NL20 human bronchial epithelial cells expressing human Z-AAT (Homo sapiens, UniProt P01009, E366K).
T1 construct: expressed in transfected cells; host or cells: NL20 human bronchial epithelial cells (NL20-SI line, doxycycline added)
T1 sequence (P01009 25-418 E366K): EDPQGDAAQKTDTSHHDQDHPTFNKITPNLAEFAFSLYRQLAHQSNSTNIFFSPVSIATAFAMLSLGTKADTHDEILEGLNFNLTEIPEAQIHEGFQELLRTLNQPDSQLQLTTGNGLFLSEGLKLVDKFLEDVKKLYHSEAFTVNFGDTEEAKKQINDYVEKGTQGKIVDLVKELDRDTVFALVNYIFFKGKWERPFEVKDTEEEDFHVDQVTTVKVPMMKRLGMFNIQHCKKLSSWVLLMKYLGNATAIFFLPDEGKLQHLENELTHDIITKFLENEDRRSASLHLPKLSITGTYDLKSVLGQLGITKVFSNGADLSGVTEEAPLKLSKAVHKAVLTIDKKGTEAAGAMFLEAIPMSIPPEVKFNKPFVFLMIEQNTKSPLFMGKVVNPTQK
Put plainly: AAT Function Assay (MSD Assay NL20-SI Cell Line). Type of assay: cell-based. The note with it: functionally active AAT (AAT-hNE complex) in supernatant of NL20 cells expressing human Z-AAT; read-out: NL20 Func. (EC50). The protocol: A. AAT Function Assay (MSD Assay NL20-SI Cell Line)
Alpha-1 antitrypsin (AAT) is a SERPIN (serine protease inhibitor) that inactivates enzymes by binding to them covalently. This assay measured the amount of functionally active AAT in a sample in the presence of the disclosed compounds 1-215 by determining the ability of AAT to form an irreversible complex with human neutrophil Elastase (hNE). In practice, the sample (cell supernatant, blood sample, or other) was incubated with excess hNE to allow AAT-Elastase complex to be formed with all functional AAT in the sample. This complex was then captured to a microplate coated with an anti-AAT antibody. The complex captured to the plate was detected with a labeled anti-Elastase antibody and quantitated using a set of AAT standards spanning the concentration range present in the sample. Meso Scale Discovery (MSD) plate reader, Sulfo-tag labeling, and microplates were used to provide high sensitivity and wide dynamic range.
• 1. Harvest NL20 human bronchial epithelial cells expressing human Z-AAT in OptiMEM™ containing Pen/Strep (P/S) • 2. Seed at 16,000 cells/well in 30 μL (384 well plate) • 3. Centrifuge plates briefly up to speed (1200 rpm) and place into 37° C. incubator overnight Day 2: Compound Addition and Coating Plates with Capture Antibody Compound Addition: • 1. Dispense 40 μL of OptiMEM™ (P/S) with doxycycline (1:1000 stock=0.1 μM final) to each well of the compound plate using a multidrop Combi in hood • 2. Remove cell plate from incubator, flip/blot and take immediately to Bravo to transfer compounds • 3. Return plates to incubator overnight Coat MSD Plates • 1. Dilute capture antibody (Polyclonal Goat anti-AAT) to 5 μg/mL (1:200) in PBS (no BSA). • 2. Dispense 25 μL of diluted capture antibody into all wells of MSD 384-well High Bind plate using the Multidrop equipped with a standard cassette. • 3. Incubate overnight at 4° C. Prepare Blocker A (BSA) Solutions • 1. Prepare solution of 5% MSD Blocker A (BSA) following the manufacturer's instructions. • 2. Further dilute the 5% MSD Blocker A in PBS to 1% (Blocker A) as needed. Day 3: Run MSD Assay
Block Plates • 1. Wash plate 1× with 50 μL Wash buffer (PBS+0.5% Tween 20), and adds 35 μL 5% Block A buffer to block non-specific binding on washer dispenser • 2. Rotate plates on shaker for 1 hour at 600 rpm
Prepare M-AAT Standards • 1. Dilute M-AAT stock to 1.6 μg/mL in 1% BSA Blocker A (Stock in −70° C.); then prepare 12×1:2 serial dilutions in 1% Blocker A • 2. The top starting final concentration on MSD plate is 320 ng/mL. These dilutions correspond to a final concentration of 320, 160, 80, 40, 20, 10, 5, 2.5, 1.25, 0.625, 0.312, 0.156 ng/mL.
Dilution Plate • 1. Add 80 μL of 1% Assay buffer to all wells except columns 1/24 (standards) with Multidrop Combi • 2. Add diluted standards to columns 1 and 24 • 3. Centrifuge dilution plates 1200 rpm briefly
Cell Plate • 1. Aspirate columns which will have the standards from the cell plates in the hood using 16-pin aspirator
Prepare Human Neutrophil Elastase (hNE) • 1. Prepare 1 μg/mL Human Neutrophil Elastase by diluting in 1% Blocker A. • a. Small 100 μg vial—add 1 mL PBS (100 μg/mL) • i. This can then be diluted 1:100 in 1% Assay Buffer for a final 1 μg/mL concentration
MSD—Add hNE (20 μL/well) • 1. After the MSD plate has blocked for at least 1 hour, wash plate 1× with 50 μL Wash buffer (PBS+0.5% Tween 20) and then add 20 μL hNE to each well
Bravo—Cell Plate—Dilution Plate—MSD Plate
Using the Bravo aspirate 10 μL from the cell plate, transfer to the dilution plate (9-fold dilution)
• 1. Mix 25 μL 3×, then aspirate 5 μL, transfer to MSD plate (5-fold dilution) • 2. Mix 10 μL 3×. Total dilution is 45 fold. • 3. Shake plates at 600 rpm for 1.5 hours
Add Functional detection hNE antibody • 1. Wash plate 1× with wash buffer • 2. […]
For orientation: EC50 means the concentration at which the effect is half-maximal. On to `Cc1cc(-n2c(C(C)C)c(C3CC3C(=O)O)c3cc4[nH]ncc4cc32)ccc1F` (single isomer, unassigned) [Compound 14, 2-[5-(4-fluoro-3-methyl-phenyl)-6-isopropyl-1H-pyrrolo[2,3-f]indazol-7-yl]cyclopropanecarboxylic acid], for which the EC50 was under 1160 nM.

On to `Cc1cc(-n2c(C(C)C)c(CC(C)C(=O)O)c3cc4[nH]ncc4cc32)ccc1F` (single isomer, unassigned) [Compound 20], for which the concentration for a half-maximal effect (EC50) was under 1160 nM.

Consider `Cc1cc(-n2c(C(C)C)c(CC(C)C(=O)O)c3cc4[nH]ncc4cc32)ccc1F` (single isomer, unassigned) [Compound 21], for which the EC50 was under 1160 nM.

For `Cc1cc(-n2c(C(C)C)c(C3CC4(CC(C(=O)O)C4)C3)c3cc4[nH]ncc4cc32)ccc1F` (single isomer, unassigned) [Compound 25], the EC50 is under 1160 nM.

Turning to `Cc1cc(-n2c(C(C)C)c(C3CC4(CC(C(=O)O)C4)C3)c3cc4[nH]ncc4cc32)ccc1F` (single isomer, unassigned) [Compound 26], the EC50 was under 1160 nM.

Regarding `Cc1cc(-n2c(C(C)C)c(C(C)CC(=O)O)c3cc4[nH]ncc4cc32)ccc1F` (single isomer, unassigned) [Compound 27], the EC50 was under 1160 nM.

For the compound `Cc1cc(-n2c(C(C)C)c(C(C)CC(=O)O)c3cc4[nH]ncc4cc32)ccc1F` (single isomer, unassigned) [Compound 28], the EC50 is under 1160 nM.

With `CC(C)c1c(C2CC3(CC(C(=O)O)C3)C2)c2cc3[nH]ncc3cc2n1-c1ccc(F)cc1` (single isomer, unassigned) [Compound 35, 6-[5-(4-fluorophenyl)-6-isopropyl-1H-pyrrolo[2,3-f]indazol-7-yl]spiro[3.3]heptane-2-carboxylic acid], the EC50 is under 1160 nM.

Turning to `CC(C)c1c(C2CC3(CC(C(=O)O)C3)C2)c2cc3[nH]ncc3cc2n1-c1ccc(F)cc1` (single isomer, unassigned) [Compound 36, 6-[5-(4-fluorophenyl)-6-isopropyl-1H-pyrrolo[2,3-f]indazol-7-yl]spiro[3.3]heptane-2-carboxylic acid], the EC50 was under 1160 nM.

With `Cc1cc(-n2c(C(C)C)c(C3CC4(CC(C(=O)O)C4)C3)c3cc4[nH]nc(C)c4cc32)ccc1F` (single isomer, unassigned) [Compound 57, 6-[5-(4-fluoro-3-methyl-phenyl)-6-isopropyl-3-methyl-1H-pyrrolo[2,3-f]indazol-7-yl]spiro[3.3]heptane-2-carboxylic acid], the EC50 is 1160 to 3000 nM.

Turning to `Cc1cc(-n2c(C(C)C)c(C3CC4(CC(C(=O)O)C4)C3)c3cc4[nH]nc(C)c4cc32)ccc1F` (single isomer, unassigned) [Compound 58, 6-[5-(4-fluoro-3-methyl-phenyl)-6-isopropyl-3-methyl-1H-pyrrolo[2,3-f]indazol-7-yl]spiro[3.3]heptane-2-carboxylic acid], the EC50 was in the range of 1160 to 3000 nM.

On to `O=C(O)C1CC2(C1)CC(c1c(C3CCOCC3)n(-c3ccc(F)c(F)c3)c3cc4cn[nH]c4cc13)C2` (single isomer, unassigned) [Compound 67], for which the EC50 was under 1160 nM.

On to `O=C(O)C1CC2(C1)CC(c1c(C3CCOCC3)n(-c3ccc(F)c(F)c3)c3cc4cn[nH]c4cc13)C2` (single isomer, unassigned) [Compound 68], for which the EC50 was under 1160 nM.

Regarding `CC1(C(=O)O)CC(c2c(C3CCOCC3)n(-c3ccc(F)c(F)c3)c3cc4cn[nH]c4cc23)C1` (single isomer, unassigned) [Compound 69], the EC50 was over 3000 nM.

Turning to `CC1(C(=O)O)CC(c2c(C3CCOCC3)n(-c3ccc(F)c(F)c3)c3cc4cn[nH]c4cc23)C1` (single isomer, unassigned) [Compound 70], the EC50 was under 1160 nM.

In the case of `O=C(O)[C@H]1C[C@H](Cc2c(C3CCOCC3)n(-c3ccc(F)c(F)c3)c3cc4cn[nH]c4cc23)C1` (single isomer, unassigned) [Compound 71], the EC50 was over 3000 nM.

For `O=C(O)[C@H]1C[C@@H](Cc2c(C3CCOCC3)n(-c3ccc(F)c(F)c3)c3cc4cn[nH]c4cc23)C1` (single isomer, unassigned) [Compound 72], the EC50 was in the range of 1160 to 3000 nM.

Take `O=C(O)[C@H]1CC[C@@H](Cc2c(C3CCOCC3)n(-c3ccc(F)c(F)c3)c3cc4cn[nH]c4cc23)CC1` (single isomer, unassigned) [Compound 73]: the EC50 is under 1160 nM.

`O=C(O)[C@H]1CC[C@H](Cc2c(C3CCOCC3)n(-c3ccc(F)c(F)c3)c3cc4cn[nH]c4cc23)CC1` (single isomer, unassigned) [Compound 74]: the EC50 is 1160 to 3000 nM.

Turning to `O=C(O)C1CC2(C1)CC(c1c(C3CCOCC3)n(-c3ccc(F)c(Cl)c3)c3cc4cn[nH]c4cc13)C2` (single isomer, unassigned) [Compound 77], the EC50 is under 1160 nM.

`O=C(O)C1CC(Cc2c(C3CCOCC3)n(-c3ccc(F)c(Cl)c3)c3cc4cn[nH]c4cc23)C1` (single isomer, unassigned) [Compound 80]: the EC50 is under 1160 nM.

As to `O=C(O)C1CC(Cc2c(C3CCOCC3)n(-c3ccc(F)c(Cl)c3)c3cc4cn[nH]c4cc23)C1` (single isomer, unassigned) [Compound 81], the EC50 was 1160 to 3000 nM.

With `[H][C@]1(C(=O)O)C[C@]2(C1)C[C@@]([H])(c1c(C3CCOCC3)n(-c3ccc(F)c(C)c3)c3cc4cn[nH]c4cc31)C2` (single isomer, unassigned) [Compound 91], the EC50 is under 1160 nM.

As for `[H][C@]1(C(=O)O)C[C@]2(C1)C[C@]([H])(c1c(C3CCOCC3)n(-c3ccc(F)c(C)c3)c3cc4cn[nH]c4cc31)C2` (single isomer, unassigned) [Compound 92], the EC50 was under 1160 nM.

Consider `Cc1cc(-n2c(C3CCOCC3)c([C@H]3C[C@H](CC(=O)O)C3)c3cc4[nH]ncc4cc32)ccc1F` (single isomer, unassigned) [Compound 94], for which the EC50 fell in the range of 1160 to 3000 nM.

As to `Cc1cc(-n2c(C3CCOCC3)c([C@H]3C[C@@H](CC(=O)O)C3)c3cc4[nH]ncc4cc32)ccc1F` (single isomer, unassigned) [Compound 95], the EC50 lay in the range of 1160 to 3000 nM.

Turning to `Cc1cc(-n2c(C3CCOCC3)c(C[C@H]3C[C@@H](C(=O)O)C3)c3cc4[nH]ncc4cc32)ccc1F` (single isomer, unassigned) [Compound 97], the EC50 was under 1160 nM.

With `Cc1cc(-n2c(C3CCOCC3)c(C[C@H]3C[C@H](C(=O)O)C3)c3cc4[nH]ncc4cc32)ccc1F` (single isomer, unassigned) [Compound 98], the EC50 is 1160 to 3000 nM.

As to `Cc1cc(-n2c(C3CCOCC3)c(CC3CC3C(=O)O)c3cc4[nH]ncc4cc32)ccc1F` (single isomer, unassigned) [Compound 101], the EC50 is over 3000 nM.

Turning to `Cc1cc(-n2c(C3CCOCC3)c(CC3CC3C(=O)O)c3cc4[nH]ncc4cc32)ccc1F` (single isomer, unassigned) [Compound 102], the EC50 was over 3000 nM.

Turning to `Cc1cc(-n2c(C3CCOCC3)c([C@H]3C[C@](C)(C(=O)O)C3)c3cc4[nH]ncc4cc32)ccc1F` (single isomer, unassigned) [Compound 104], the concentration for a half-maximal effect (EC50) was under 1160 nM.

Regarding `Cc1cc(-n2c(C3CCOCC3)c(C[C@H]3CC[C@H](C(=O)O)CC3)c3cc4[nH]ncc4cc32)ccc1F` (single isomer, unassigned) [Compound 106], the EC50 is under 1160 nM.
